Assay results taken from PubChem BioAssay AID326 (DTP/NCI, 2004).
Several values for one entry are separate records, joined by “and”; a condition that tells them apart may be missing. Identical values can stand only once. Toxic doses and inconclusive results are not listed. Numbered stars: 1 amine (or outer) side, 2 acyl side, 3 side chain; on linkers, the order of the positions; unused ones are H or OH. Bridge positions count the residues as written; N and C are the ends. Square brackets hold non-standard residues; d marks the D form. Peptide text beside a SMILES is read from it. I, II: the chains in the order shown. Actinocin(9to1) = Cc1c2oc3c(C)ccc(C(=O)[*:1])c3nc-2c(C(=O)[*:2])c(N)c1=O; aThr = C[C@H](O)[C@H](N)C(=O)O; NMeV = CN[C@H](C(=O)O)C(C)C; Sar = CNCC(=O)O

Test system: CD2F1 mice, P388/DHAQ leukemia ip, median survival T/C
Assay: NCI In Vivo Anticancer Drug Screen. Data for tumor model P388 Leukemia resistant to Dihydroxy Anthracenedione; NSC 299195 (intraperitoneal) in CD2F1 (CDF1) mice
Details: endpoint: median survival time, higher = longer survival
Experimental: The antitumor activity of compounds was measured in mice bearing transplantable tumors. Survival or tumor size were measured and the results are expressed as the measurement made in the treated group (T) divided by the measurement made in the vehicle treated control group (C). The tumor model used in this assay is P388 Leukemia resistant to Dihydroxy Anthracenedione; NSC 299195 (intraperitoneal) in CD2F1 (CDF1) mice

CO[C@H](C(=O)[C@@H](O)[C@@H](C)O)[C@@H]1Cc2cc3cc(OC4CC(OC5CC(O)C(O)C(C)O5)C(O)C(C)O4)c(C)c(O)c3c(O)c2C(=O)[C@H]1OC1CC(OC2CC(OC3CC(C)(O)C(O)C(C)O3)C(O)C(C)O2)C(O)C(C)O1 (some centres undefined)
T/C (dose: 0.22 mg/kg/injection, schedule: Q01DX005 (ip), vehicle: clinical formulation): 112 % of control
T/C (dose: 0.36 mg/kg/injection, schedule: Q01DX005 (ip), vehicle: clinical formulation): 110 % of control
T/C (dose: 0.6 mg/kg/injection, schedule: Q01DX005 (ip), vehicle: clinical formulation): 120 % of control
T/C (dose: 1.0 mg/kg/injection, schedule: Q01DX005 (ip), vehicle: clinical formulation): 123 % of control

CC[C@H]1CN2CCc3cc(OC)c(OC)cc3[C@@H]2C[C@@H]1C[C@H]1NCCc2cc(OC)c(OC)cc21
T/C (dose: 4.32 mg/kg/injection, schedule: Q04DX003 (ip), vehicle: saline): 111 % of control
T/C (dose: 5.18 mg/kg/injection, schedule: Q04DX003 (ip), vehicle: saline): 111 % of control
T/C (dose: 7.2 mg/kg/injection, schedule: Q04DX003 (ip), vehicle: saline): 121 % of control
T/C (dose: 8.64 mg/kg/injection, schedule: Q04DX003 (ip), vehicle: saline): 121 % of control
T/C (dose: 12.0 mg/kg/injection, schedule: Q04DX003 (ip), vehicle: saline): 121 % of control
T/C (dose: 14.4 mg/kg/injection, schedule: Q04DX003 (ip), vehicle: saline): 156 % of control
T/C (dose: 24.0 mg/kg/injection, schedule: Q04DX003 (ip), vehicle: saline): 175 % of control and 228 % of control

CC(=O)[C@]1(O)Cc2c(O)c3c(c(O)c2[C@@H](OC2CC(N)C(O)C(C)O2)C1)C(=O)c1c(O)cccc1C3=O (some centres undefined)
T/C (dose: 0.32 mg/kg/injection, schedule: Q04DX003 (ip), vehicle: saline): 113 % of control
T/C (dose: 0.54 mg/kg/injection, schedule: Q04DX003 (ip), vehicle: saline): 111 % of control
T/C (dose: 1.5 mg/kg/injection, schedule: Q04DX003 (ip), vehicle: saline): 110 % of control
T/C (dose: 2.0 mg/kg/injection, schedule: Q04DX003 (ip), vehicle: saline): 96 % of control
T/C (dose: 2.5 mg/kg/injection, schedule: Q04DX003 (ip), vehicle: saline): 95 % of control

O=CC(NC(=O)N(CCCl)N=O)C(O)C(O)C(O)CO (centres undefined)
T/C (dose: 7.2 mg/kg/injection, schedule: Q04DX002 (ip), vehicle: saline): 201 % of control
T/C (dose: 12.0 mg/kg/injection, schedule: Q04DX002 (ip), vehicle: saline): 181 % of control
T/C (dose: 20.0 mg/kg/injection, schedule: Q04DX002 (ip), vehicle: saline): 412 % of control

COc1ccc(CCN(C)CCCC(C#N)(c2ccc(OC)c(OC)c2)C(C)C)cc1OC (centres undefined)
T/C (dose: 16.0 mg/kg/injection, schedule: Q03HX004 (ip), vehicle: saline): 100 % of control
T/C (dose: 32.0 mg/kg/injection, schedule: Q03HX004 (ip), vehicle: saline): 103 % of control

O=C(Nc1ccc(C2=NCCCN2)cc1)c1ccc(C(=O)Nc2ccc(C3=NCCCN3)cc2)cc1
T/C (dose: 4.32 mg/kg/injection, schedule: Q04DX003 (ip), vehicle: Klucel (hydroxypropylcellulose) (HPC)): 110 % of control
T/C (dose: 6.48 mg/kg/injection, schedule: Q04DX003 (ip), vehicle: Klucel (hydroxypropylcellulose) (HPC)): 106 % of control
T/C (dose: 7.2 mg/kg/injection, schedule: Q04DX003 (ip), vehicle: Klucel (hydroxypropylcellulose) (HPC)): 110 % of control
T/C (dose: 10.8 mg/kg/injection, schedule: Q04DX003 (ip), vehicle: Klucel (hydroxypropylcellulose) (HPC)): 110 % of control and 119 % of control
T/C (dose: 12.0 mg/kg/injection, schedule: Q04DX003 (ip), vehicle: Klucel (hydroxypropylcellulose) (HPC)): 112 % of control
T/C (dose: 18.0 mg/kg/injection, schedule: Q04DX003 (ip), vehicle: Klucel (hydroxypropylcellulose) (HPC)): 107 % of control and 121 % of control
T/C (dose: 20.0 mg/kg/injection, schedule: Q04DX003 (ip), vehicle: Klucel (hydroxypropylcellulose) (HPC)): 111 % of control
T/C (dose: 30.0 mg/kg/injection, schedule: Q04DX003 (ip), vehicle: Klucel (hydroxypropylcellulose) (HPC)): 100 % of control
T/C (dose: 50.0 mg/kg/injection, schedule: Q04DX003 (ip), vehicle: Klucel (hydroxypropylcellulose) (HPC)): 107 % of control

O=c1[nH]cc(F)c(=O)[nH]1
T/C (dose: 13.0 mg/kg/injection, schedule: Q04DX003 (ip), vehicle: saline): 104 % of control
T/C (dose: 60.0 mg/kg/injection, schedule: Q04DX003 (ip), vehicle: saline): 116 % of control and 226 % of control
T/C (dose: 100.0 mg/kg/injection, schedule: Q04DX003 (ip), vehicle: saline): 109 % of control

CCC1(O)CC2CN(CCc3c([nH]c4ccccc34)C(C(=O)OC)(c3cc4c(cc3OC)N(C)C3C(O)(C(N)=O)C(O)C5(CC)C=CCN6CCC43C65)C2)C1 (centres undefined) (tested in a mixture with another compound)
T/C (dose: 0.65 mg/kg/injection, schedule: Q04DX003 (ip), vehicle: clinical formulation): 173 % of control
T/C (dose: 1.08 mg/kg/injection, schedule: Q04DX003 (ip), vehicle: clinical formulation): 182 % of control
T/C (dose: 1.8 mg/kg/injection, schedule: Q04DX003 (ip), vehicle: clinical formulation): 208 % of control
T/C (dose: 3.0 mg/kg/injection, schedule: Q04DX003 (ip), vehicle: clinical formulation): 87 % of control

C[n+]1ccc(Nc2ccc(NC(=O)c3ccc(Nc4cc[n+](C)c5ccc(N)cc45)cc3)cc2)cc1
T/C (dose: 1.94 mg/kg/injection, schedule: Q04DX003 (ip), vehicle: water): 114 % of control
T/C (dose: 3.24 mg/kg/injection, schedule: Q04DX003 (ip), vehicle: water): 116 % of control
T/C (dose: 5.4 mg/kg/injection, schedule: Q04DX003 (ip), vehicle: water): 116 % of control

Cc1c2oc3c(C)ccc(C(=O)N[C@@H]4C(=O)N[C@H](C(C)C)C(=O)N5CCC[C@H]5C(=O)N(C)CC(=O)N(C)[C@@H](C(C)C)C(=O)O[C@H]4C)c3nc-2c(C(=O)N[C@@H]2C(=O)N[C@H](C(C)C)C(=O)N3CCC[C@H]3C(=O)N(C)CC(=O)N(C)[C@@H](C(C)C)C(=O)O[C@H]2C)c(N)c1=O (I: [aThr][dV]P[Sar][NMeV] / II: [aThr][dV]P[Sar][NMeV]; ester I:1-I:C, II:1-II:C; linker I:N-II:N via Actinocin(9to1))
T/C (dose: 108.0 micrograms/kg/injection, schedule: Q04DX003 (ip), vehicle: saline + alcohol): 152 % of control and 154 % of control
T/C (dose: 130.0 micrograms/kg/injection, schedule: Q04DX003 (ip), vehicle: saline + alcohol): 152 % of control
T/C (dose: 180.0 micrograms/kg/injection, schedule: Q04DX003 (ip), vehicle: saline + alcohol): 157 % of control and 176 % of control
T/C (dose: 216.0 micrograms/kg/injection, schedule: Q04DX003 (ip), vehicle: saline + alcohol): 200 % of control
T/C (dose: 300.0 micrograms/kg/injection, schedule: Q04DX003 (ip), vehicle: saline + alcohol): 192 % of control and 201 % of control
T/C (dose: 360.0 micrograms/kg/injection, schedule: Q04DX003 (ip), vehicle: saline + alcohol): 206 % of control
T/C (dose: 500.0 micrograms/kg/injection, schedule: Q04DX003 (ip), vehicle: saline + alcohol): 209 % of control
T/C (dose: 600.0 micrograms/kg/injection, schedule: Q04DX003 (ip), vehicle: saline + alcohol): 227 % of control

CC(=O)N(C)c1ccc(Nc2cc(C)[nH]c3ccc4ncnc4c23)cc1
T/C (dose: 19.4 mg/kg/injection, schedule: Q04DX002 (ip), vehicle: saline): 98 % of control
T/C (dose: 20.7 mg/kg/injection, schedule: Q04DX002 (ip), vehicle: saline): 98 % of control
T/C (dose: 32.4 mg/kg/injection, schedule: Q04DX002 (ip), vehicle: saline): 94 % of control
T/C (dose: 34.6 mg/kg/injection, schedule: Q04DX002 (ip), vehicle: saline): 91 % of control
T/C (dose: 54.0 mg/kg/injection, schedule: Q04DX002 (ip), vehicle: saline): 116 % of control
T/C (dose: 57.6 mg/kg/injection, schedule: Q04DX002 (ip), vehicle: saline): 94 % of control
T/C (dose: 96.0 mg/kg/injection, schedule: Q04DX002 (ip), vehicle: saline): 108 % of control
T/C (dose: 160.0 mg/kg/injection, schedule: Q04DX002 (ip), vehicle: saline): 98 % of control

C(=N/NC1=NCCN1)/c1c2ccccc2c(/C=N\NC2=NCCN2)c2ccccc12
T/C (dose: 5.18 mg/kg/injection, schedule: Q04DX002 (ip), vehicle: saline): 103 % of control
T/C (dose: 8.64 mg/kg/injection, schedule: Q04DX002 (ip), vehicle: saline): 108 % of control
T/C (dose: 13.0 mg/kg/injection, schedule: Q04DX002 (ip), vehicle: water): 111 % of control
T/C (dose: 14.4 mg/kg/injection, schedule: Q04DX002 (ip), vehicle: saline): 105 % of control
T/C (dose: 21.6 mg/kg/injection, schedule: Q04DX002 (ip), vehicle: water): 118 % of control
T/C (dose: 36.0 mg/kg/injection, schedule: Q04DX002 (ip), vehicle: water): 111 % of control
T/C (dose: 40.0 mg/kg/injection, schedule: Q04DX002 (ip), vehicle: saline): 98 % of control
T/C (dose: 60.0 mg/kg/injection, schedule: Q04DX002 (ip), vehicle: water): 109 % of control
